Source: article PMC11031590, “Narazaciclib, a novel multi-kinase inhibitor with potent activity against CSF1R, FLT3 and CDK6, shows strong anti-AML activity in defined preclinical models” (Scientific Reports, 2024)
“And” between values parts separate entries of the source, which are not always exact repeats. Equal entries are not always repeated.

What was measured:
AML cell lines = experiment: In vitro proliferation assay, panel of 33 AML cell lines (summary statements); format: cell-based; details: a subset of AML lines; read-out: IC50 growth inhibition
Procedure: Narazaciclib was serially diluted with culture medium to 9 final assay concentrations from 0.01 to 100 μM. The assay was performed with both a negative control (vehicle) and a positive control (Cisplatin) in triplicate. The AML cell lines at log-growth phase were cultured in 96-well plates (black transparent flat bottom 96-well plate, Corning, Cat# 3603, FBS, ExCell Bio., Cat# FND500) in the presence of narazaciclib or Cisplatin at various concentrations for 72 h or 120 h (only for AML-193 cell line), followed by CTG readout according to the manufacturer’s instruction (CellTiter-Glo Luminescent Cell Viability Assay, Promega, Cat# G7573). Viability%=Lumdrug-Lummedium control/Lumcell control-Lummedium control×100%. Lumcell control-Lummedium controlas100%,LumMediumcontrolas0%. […]
Dose–response curves were fitted by a 4-parameter log-logistic model: Inhibition%=Bottom+Top-Bottom/1+10^logEC50-x∗HillSlope where Top and Bottom are the two asymptotes of the sigmoidal curve, EC50 is the relative IC50, concentration x is in log-10 scale and HillSlope is the slope at the EC50 point on the fitted curve. The fitted area under the curve (AUC) was calculated by: Inhibition%=Bottom+Top-Bottom/1+10^logEC50-x∗HillSlope where a represents the log10-transformed minimal concentration and b represents the log10-transformed maximal concentration. […]

AM7407 AML-PDX = experiment: AM7407 systemic AML-PDX model; format: in vivo, NOD/scid mice; details: AM7407, 100 mg/kg orally every day
Procedure: (§1) For systemic AML-PDX models, the model establishment and narazaciclib pharmacology experiment were performed essentially as described previously. Briefly, 2 × 10^6 AM7407 cells, or 2 × 10^6 AM7577 cells, or 2 × 10^6 AM5512 cells, or 1.65 × 10^6 AM8096 cells were inoculated intravenously into 4- to 5-week-old female NOD/scid mice for AML development. Engraftment was confirmed by the presence of circulating human CD45+ cells (anti-human CD45 antibody, Cat. 304038, Biolegend) in peripheral blood. Mice with successful engraftment of AML-PDX were randomized into different treatment groups (N = 6) and received their designated treatments. Narazaciclib was administrated orally or intraperitoneally at 10 mg/kg, or 30 mg/kg, or 100 mg/kg every day throughout the study, while Cytarabine was administrated intraperitoneally at 3 mg/kg every day. Following the initiation of designated treatments, leukemic burden was monitored by flow cytometry with anti-human CD45 antibody on the peripheral blood every week as well as on the peripheral blood, bone marrow cells and splenocytes of mice at sacrifice. Mice were sacrifice once the followings are observed: body weight loss over 20%, reduced motility and activity, labored breathing, ruffled coat, hunched back and severe dehydration.

Ba/F3-FLT3-ITD (F691L) = Ba/F3-FLT3-ITD (F691L) proliferation assay; format: cell-based, mouse
Procedure: (§2) The recombinant Ba/F3 cell lines overexpressing human CSF1R, or human RBM6-CSF1R, or human ETV6-CSF1R were generated using a retrovirus vector (Kyinno Co., Ltd. Beijing). The recombinant Ba/F3 lines overexpressing human Kras G12C orEGFR-L718Q mutants, and different mutant variants of FLT3 were also similarly created as well. A standard proliferation assay via CTG readout was performed according to the vendor’s instructions (KYinno Biotechnology Co., Ltd. Beijing).

AM7577 AML-PDX = experiment: AM7577 systemic AML-PDX model; format: in vivo, NOD/scid mice
Procedure: as §1

[1] = tested on: Ba/F3-RBM6-CSF1R cell line; experiment: Ba/F3-RBM6-CSF1R proliferation assay (CTG); format: cell-based, mouse; details: Mus musculus; not requiring CSF1
Procedure: as §2

CSF1R = CSF1R (Homo sapiens, UniProt P07333); experiment: CSF1R kinase inhibition assay; format: biochemical; details: read-out: IC50 CSF1R enzymatic activity
Procedure: For CSF1R inhibition, TK-substrate-biotin and ATP were incubated at room temperature for 40 min, followed by adding different concentrations of […] and TK-antibody-Cryptate into each well of the assay plate and incubation at room temperature for 1 h. The fluorescence signal was read at 615 nm (Cryptate) and 665 nm (XL665) on an Envision 2104 plate reader.

Ba/F3-FLT3-ITD (N701K) = Ba/F3-FLT3-ITD (N701K) proliferation assay; format: cell-based, mouse
Procedure: as §2

[2] = tested on: Ba/F3-ETV6-CSF1R xenograft; experiment: Ba/F3-ETV6-CSF1R subcutaneous xenograft model; format: in vivo, NOD/scid mice; details: either 50 mg/kg or 100 mg/kg
From the text: The subcutaneous cell line xenograft (CDX) models and systemic patient-derived xenograft (PDX) models of AML have been extensively described before. For the subcutaneous MV-4-11 CDX model, 5 × 10^6 MV-4-11 tumor cells harvested from exponential growth phase were mixed with Matrigel (1:1) and then inoculated into the right front flank region of 6- to 7-week-old female NOD/scid mice for tumor development. MV-4-11 tumor-bearing mice were randomized into 5 groups (N = 8) when their tumor volume reached approximately 100 mm^3 and received their designated treatments following randomization. Narazaciclib was administrated intraperitoneally at 100 mg/kg twice per week for 3 weeks, while Azacitidine was administrated intraperitoneally at 3 mg/kg twice per week for 3 weeks. For the subcutaneous Ba/F3-ETV6-CSF1R CDX model, 1 × 10^6 Ba/F3-ETV6-CSF1R tumor cells harvested from exponential growth phase were mixed with Matrigel (1:1) and then inoculated into the right front flank region of 6- to 8-week-old female NOD/scid mice for tumor development. Ba/F3-ETV6-CSF1R tumor-bearing mice were randomized into 5 groups (N = 6) when their tumor volume reached approximately 100 mm^3 and received their designated treatments following randomization. […] Tumor volume and body weight were measured at different time points and tumor growth inhibition (TGI) was used as index to determine the therapeutic efficacy.

Ba/F3-FLT3 = Ba/F3-FLT3 proliferation assay; format: cell-based, mouse
Procedure: as §2

Ba/F3-FLT3-N701K = Ba/F3-FLT3-N701K proliferation assay; format: cell-based, mouse
Procedure: as §2

Sequence of CSF1R (P07333 20-972): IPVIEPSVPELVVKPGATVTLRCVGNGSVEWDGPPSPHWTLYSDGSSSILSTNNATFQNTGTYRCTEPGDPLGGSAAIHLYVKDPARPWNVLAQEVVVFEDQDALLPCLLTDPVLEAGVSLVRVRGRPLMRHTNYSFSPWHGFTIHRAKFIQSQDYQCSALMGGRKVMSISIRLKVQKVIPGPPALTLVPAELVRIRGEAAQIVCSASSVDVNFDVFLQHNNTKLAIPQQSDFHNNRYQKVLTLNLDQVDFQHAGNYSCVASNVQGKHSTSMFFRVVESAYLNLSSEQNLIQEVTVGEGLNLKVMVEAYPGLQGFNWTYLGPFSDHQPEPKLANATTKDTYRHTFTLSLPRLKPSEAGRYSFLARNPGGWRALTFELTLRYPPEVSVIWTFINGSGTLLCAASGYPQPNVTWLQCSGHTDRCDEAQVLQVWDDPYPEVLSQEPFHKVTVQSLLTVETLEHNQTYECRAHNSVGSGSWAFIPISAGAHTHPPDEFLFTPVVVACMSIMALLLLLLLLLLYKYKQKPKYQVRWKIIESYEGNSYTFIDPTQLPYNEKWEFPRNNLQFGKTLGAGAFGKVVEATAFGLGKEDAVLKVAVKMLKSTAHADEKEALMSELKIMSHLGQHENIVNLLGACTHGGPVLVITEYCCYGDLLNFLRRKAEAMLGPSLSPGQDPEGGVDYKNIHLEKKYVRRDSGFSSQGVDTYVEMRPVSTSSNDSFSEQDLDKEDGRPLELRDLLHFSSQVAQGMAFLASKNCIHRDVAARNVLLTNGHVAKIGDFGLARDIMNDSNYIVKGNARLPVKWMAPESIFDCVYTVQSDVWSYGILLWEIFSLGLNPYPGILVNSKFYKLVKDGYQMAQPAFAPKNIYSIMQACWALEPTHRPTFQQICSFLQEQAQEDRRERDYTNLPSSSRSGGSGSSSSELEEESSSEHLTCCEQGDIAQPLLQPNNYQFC

% of Ba/F3-FLT3 (IC50) (Ba/F3-FLT3-ITD (F691L)): 53.85% | IC50 (Ba/F3-FLT3-ITD (F691L); Mus musculus): 162 nM | IC50 [1]: 36.9 nM | IC50 (CSF1R): ~0.285 nM and 0.29 nM | % of Ba/F3-FLT3 (IC50) (Ba/F3-FLT3-ITD (N701K)): 38.91% | IC50 (Ba/F3-FLT3-ITD (N701K); Mus musculus): 117 nM | % of Ba/F3-FLT3 (IC50) (Ba/F3-FLT3; Ba/F3-FLT3): 100.00% | IC50 (Ba/F3-FLT3; Mus musculus, Ba/F3-FLT3 (wild type)): 301 nM | % of Ba/F3-FLT3 (IC50) (Ba/F3-FLT3-N701K): 131.40% | IC50 (Ba/F3-FLT3-N701K; Mus musculus): 396 nM
SMILES: CN1CCN(c2ccc(Nc3ncc4cc(C#N)c(=O)n(C5CCCC5)c4n3)cc2)CC1 [Narazaciclib, narazaciclib]
IC50 (AML cell lines): < 1500 nM | response of model (AM7407 AML-PDX): did not respond | leukemic load in peripheral blood (AM7577 AML-PDX; 100 mg/kg orally every day): completely diminished the leukemic load in peripheral blood | leukemic load in peripheral blood, spleen and bone marrow (AM7577 AML-PDX; AM7577): reduce the leukemic load in peripheral blood and spleen, but also the leukemic load in bone marrow | leukemic burdens in spleen and bone marrow (AM7577 AML-PDX; AM7577, 100 mg/kg): significantly reduced the leukemic burdens in both spleen and bone marrow | leukemic burdens, dose dependence (AM7577 AML-PDX; AM7577, different dose levels): reduced the leukemic burdens in a dose-dependent manner | tumor growth [2]: significantly delayed the tumor growth
